From US12616753B2, “HSP70 inhibitors and methods of using same” (THE WISTAR INSTITUTE, priority 2020, dated 2026)

Experiments:
[1] = test system: 1205Lu and HT-29 tumor cell lines; experiment: Seahorse XF Cell Mito Stress Test, tumor cell lines; assay type: cell-based, human; settings: 500 nM (sublethal), 24 hours
Description: FIG. 2A: IMR90 cells (non-transformed fibroblasts), 1205Lu (melanoma), and HT-29 (CRC) cancer cells were treated with sub-lethal doses (500 nM) of the HSP70 inhibitors PET-16 (positive control) or AP-4-139B for 24 hours. Cells were then subjected to the Seahorse Mito Stress Test Assay. Injections were Oligomycin (1 μM, line A), FCPP (0.5-1 μM, line B), and Rotenone/Antimycin A (1 μM, line C). Each graphical representation indicates the mean±standard deviation of a minimum of 5 technical replicates. […] Each experiment was performed in triplicate and independently repeated twice. FIGS. 2B-2D: Basal Oxygen Consumption Rate (ORC) (FIG. 2B), Maximal OCR (FIG. 2C), and ATP production (FIG. 2D) were analyzed in IMR90 fibroblasts, non-transformed colonic epithelial cells (CCD 841 CoN), 1205Lu melanoma cells and HT-29 CRC cells, in the presence or absence of 500 nM HSP70 inhibitors or negative control (VY-3-277). All experiments were performed in triplicate, with each group containing 5-6 technical replicates. ** p<0.01, *** p<0.001, n.s. not significant.
The XF Cell Mito Stress Test was performed. […] For extracellular ATP release, ATP was measured using the CellTiter-Glo Kit (Promega catalog #G7570). […] 10 μl of CellTiter-Glo Reaction Mix was then mixed with 10 μl of culture media; the luminescence signal was detected using a luminometer.

[2] = test system: MC38 and HT-29 cells; experiment: Extracellular ATP release (CellTiter-Glo); assay type: cell-based
Description: FIG. 6A: 1×10^6 MC38 cells were injected subcutaneously into the right flank of 6-8-week-old male C57Bl/6 mice. Once tumors reached an approximate volume of 100 mm^3, mice were treated with AP-4-139B (10 mg/kg) every 48 hours. 20 days after the start of treatment, tumors were excised, weighed, minced and digested. Tumor-infiltrating and splenic conventional CD4 (cCD4) (Live CD45^+ DUMP^− CD3^+CD4^+Foxp3^−), Tregs (Live CD45^+ DUMP^− CD3^+CD4^+Foxp3^+), CD8 (Live CD45^+ DUMP^− CD3^+CD8^+) T-cells, and Dendritic Cells (Live CD45^+ DUMP^− CD3^−CD11c^+MHCII^+) numbers were assessed by flow cytometry. * p<0.05, n.s. not significant. n=8 mice per group. FIG. 6B: MC38 and HT-29 cells were treated with the indicated concentrations of AP-4-139B for either 8 or 24 hours; media was collected and subjected to WB for HMGB1. Data shown are representative of three technical replicates. FIG. 6C: MC38 and HT-29 cells were treated with the indicated concentrations of AP-4-139B for three hours and then assayed for extracellular ATP release. Each graphical representation indicates the mean±the standard deviation of three independent experiments relative to control (DMSO-treated) cells.
FIG. 6D: MC38 cells were treated with 5 μM AP-4-139B for 24 hours and subjected to flow cytometry, using Alexa488-tagged calreticulin antibody. *** p<0.001, n=4 biological replicates performed in duplicate. FIG. 6E: MC38 cells were treated with increasing concentrations of AP-4-139B, G-TPP, 17-AAG or Metformin for 3 hours and then assayed for extracellular ATP release. Three independent cultures were assayed for each treatment, and DMSO-treated cells were used as internal controls. Error bars represent standard deviation (SD).
The XF Cell Mito Stress Test was performed. Briefly, HT-29 (10,000 cells/well), IMR90 (15,000 cells/well), and 1205Lu (15,000 cells/well) were plated in Seahorse 96-well cell culture microplates, treated with the respective inhibitors for 24 hours, and subjected to the Seahorse XF Cell Mito Stress Test, according to the manufacturer's protocol (Agilent Technologies). For extracellular HMGB1 release, 1×10^6 MC38 cells were plated in 10-cm dishes. The next day, cells were treated with the indicated concentrations of AP-4-139B for 8 or 24 hours in serum-free media. Media was collected and spun down at 2,000 rpm for 5 minutes to pellet any remaining cells or debris. Media was then transferred to Amicon Ultra 15, 10K tubes and spun down at 4,000 rpm for 45 minutes, according to the manufacturer's protocol. […] For extracellular ATP release, ATP was measured using the CellTiter-Glo Kit (Promega catalog #G7570). […] 10 μl of CellTiter-Glo Reaction Mix was then mixed with 10 μl of culture media; the luminescence signal was detected using a luminometer.

| Compound | basal oxygen consumption rate and ATP production in tumor cell lines [1] | ATP release ([2]; MC38 and HT-29, three hours) | ATP release, comparison of compounds ([2]; MC38 cells, increasing concentrations, 3 hours) |
| --- | --- | --- | --- |
| C(#C[P+](c1ccccc1)(c1ccccc1)c1ccccc1)c1ccccc1 [PET-16, Triphenyl(phenylethynyl)phosphonium bromide, reference compound] | minimal activity |  |  |
| c1ccc(-c2cn3nc(CCCCCC[P+](c4ccccc4)(c4ccccc4)c4ccccc4)sc3n2)cc1 [AP-4-139B, Triphenyl(6-(6-phenylimidazo[2,1-b][1,3,4]thiadiazol-2-yl)hexyl)phosphonium bromide] | reduced basal oxygen consumption rate and ATP production | ATP release | most significant release of ATP |
